Article PMC10876507, “Chelator impact: investigating the pharmacokinetic behavior of copper-64 labeled PD-L1 radioligands” (EJNMMI Radiopharmacy and Chemistry, 2024)
Values joined by “and” are separate entries in the source; they are usually repeats but may differ in a detail not shown here. Identical values can stand only once.

Key:
[1] = system: PC3 PD-L1 overexpressing and PD-L1-mock tumors; experiment: PET imaging in NMRI-nude mice bearing PC3 PD-L1 and PC3 mock tumors; assay type: in vivo; conditions: for reduction of PD-L1 positive tumor uptake under blocking conditions / reduction of liver uptake under blocking conditions / contrast of PD-L1 positive tumor SUVmax over mock tumor: 1–2 h p.i.; for reduction of PD-L1 positive tumor uptake under blocking conditions / reduction of liver uptake under blocking conditions: 500 nmol unlabeled compound; for contrast of PD-L1 positive tumor SUVmax over mock tumor: percent higher than mock tumor; for excretion pattern / clearance route in PET / SUVmax PC3 PD-L1 tumor, blocking / SUVmax PC3 mock tumor, blocking / SUVmax kidney, blocking / SUVmax liver, blocking / SUVmax PC3 PD-L1 tumor / SUVmax PC3 mock tumor / SUVmax kidney / SUVmax liver: mice; for excretion pattern / clearance route in PET: PET 0–25 h p.i.; for SUVmax PC3 PD-L1 tumor / SUVmax PC3 mock tumor / SUVmax kidney / SUVmax liver: tracer only, i.v.
Description: Male athymic NMRI-nude mice (Rj:NMRI-Foxn1nu, Janvier Labs, Le Genest-Saint-Isle, France) aged between 8 to 16 weeks were employed for the study. General anesthesia was induced [~ 10% desflurane (Baxter, Deerfield, IL, USA) in 30 vol% oxygen + air] under controlled warming (37°C), and mice were subcutaneously injected with 3–5 × 10^6 PC3 PD-L1 and PC3 mock cells (in 50 µL PBS + 50 µL Matrigel, Corning, Glendale, CA, USA) into the right and left thigh, respectively. The growth of tumors was systematically monitored three times per week through caliper measurements, and animals with tumor sizes above 7 mm were included in the subsequent experiments.
PET and X-ray computed tomography (CT) scans were conducted under general anesthesia using a small animal nanoScan PET/CT scanner (Mediso, Budapest, Hungary), capable of imaging four animals simultaneously. CT images served attenuation correction and anatomical referencing. A total of three individual scans were conducted, corresponding to the timeframes of 0–2 h (dynamic reconstruction), 4–5 h, and 24–25 h (one frame reconstruction) after injection.
The PD-L1 radiotracer candidates (in 300 µL sterile 0.9% NaCl/HEPES buffer, pH 6–7, containing between 7 and 12 MBq, with molar activities exceeding 12 GBq/µmol) were intravenously delivered over 30 s through a catheter in the lateral tail vein. The PET acquisition was initiated simultaneously with the administration.
The acquired three-dimensional list mode data were sorted and binned within a 400–600 keV energy window, forming […] (15 × 10 s, 5 × 30 s, 5 × 60 s, 4 × 300 s, 3 × 600 s, 3 × 1200 s). Reconstruction of the time frames was accomplished using the Tera-TomoTM 3D algorithm, utilizing a voxel size of 0.4 mm and applying corrections for decay, scatter, and attenuation. The images were subjected to post-processing and analysis using Rover software (ABX GmbH, Radeberg, Germany), and were depicted as maximum intensity projections (MIPs) at the specified timepoints and scaling.
Three-dimensional volumes of interest were defined using fixed thresholding at 35–40% of the maximal measured intensity. Standardized uptake values (SUV = [MBq detected activity/mL tissue] / [MBq injected activity/g body weight], in mL/g) were then calculated within the selected volumes of interest, encompassing PD-L1 and mock tumors, as well as metabolizing organs.

[2] = n-octanol/PBS pH 7.4, shake flask
Description: The n-octanol/water distribution coefficients for each radioligand were determined using the shake-flask method. Each experiment was conducted in triplicate. To initiate the experiment, 30 µL of the labeling mixture was combined with 570 µL of PBS (pH 7.4) and 600 µL of n-octanol in a 1.5 mL Eppendorf-Tube. The resulting mixture was shaken at room temperature at 1500 rpm for 5 min before undergoing centrifugation. An aliquot was extracted from each phase, and radioactivity was measured on a γ-counter (ISOMED 2160). Subsequently, mean values were calculated and adjusted for background activity. The log D7.4 value was determined utilizing the equation: logD7.4=logAn-octanol/APBS

[3] = target: PD-L1 (Homo sapiens, UniProt Q9NZQ7); experiment: Real-time radioligand binding (LigandTracer) on PC3 PD-L1 overexpressing cells, without BSA; parameters: expressed in transfected cells; host or cells: PC3 PD-L1 overexpressing cells; conditions: for Kd: PC3 PD-L1 overexpressing cells, room temperature, without BSA; for ka: association rate constant; for ka / kd: real-time binding; for kd: dissociation rate constant
PD-L1, sequence (Q9NZQ7 19-290): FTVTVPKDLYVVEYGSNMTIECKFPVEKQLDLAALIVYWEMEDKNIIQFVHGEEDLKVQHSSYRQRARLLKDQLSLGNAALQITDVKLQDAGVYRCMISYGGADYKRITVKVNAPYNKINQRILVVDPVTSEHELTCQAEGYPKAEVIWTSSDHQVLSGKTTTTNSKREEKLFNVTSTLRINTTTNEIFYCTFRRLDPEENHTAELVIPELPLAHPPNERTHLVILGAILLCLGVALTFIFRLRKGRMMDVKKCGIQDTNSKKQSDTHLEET
Description: For the saturation binding experiments, cells were detached with 0.05% Trypsin–EDTA (Gibco, USA), and counted (CASY1 cell counter, Schaerfe System, Reutlingen, Germany). Cells were then diluted in medium to ~ 160,000 cells/mL and seeded in 48 well plates (Falcon Multiwell #353078, ThermoFisher, Karlsruhe, Germany) for at least 2 days prior to saturation binding experiments. For real-time radioligand binding, approximately 400,000 cells/mL were seeded into one side of petri dishes (3 mL, Nunclon, # 150350, ThermoFisher Germany) ~ 24 h before the experiments.
To investigate binding kinetics, including the association rate constant (ka) and dissociation rate constant (kd), as well as the dissociation constant (KD), a real-time assay system (LigandTracer Yellow or LigandTracer White, Ridgeview Instruments AB, Uppsala, Sweden) was utilized. The petri dish contained attached cells in medium (3 mL) on one side, while radioactivity was detected on the opposing side. The petri dish is set upon an inclined base, allowing continuous measurement of alternating portions of the dish for bound radioligand (cells) compared to the background signal (no cells). Binding experiments were carried out at room temperature using CO2-independent medium (Gibco #18045088, ThermoFisher Germany).
The association phase consisted of incubation with two concentrations (30 and 90 nM, each for 90 min) of our ^64Cu-labeled PD-L1-radioligands, binding to PC3 PD-L1 overexpressing cells. Following this, the incubation medium was replaced with fresh medium, and the dissociation phase was monitored for a minimum of 2 h. […] Data were recorded as decay-corrected counts per second (CPS). Subsequently, binding data were analyzed using TraceDrawer software (version 1.9.2, Ridgeview Instruments AB, Uppsala, Sweden). Traces were imported, potential spikes (instances of sudden CPS increases exceeding 100% of the previous data point) were eliminated, and each trace was normalized to its own baseline (set as 0%) and its maximum value (set as 100%).

[4] = tracer +500 nM respective unlabeled compound (injected 5 min prior), 1-2 hour p.i.
[5] = tracer +500 nM respective unlabeled compound, 1-2 hour p.i.
[6] = tracer +500 nM respective unlabeled compound, 4-5 hour p.i.
[7] = tracer +500 nM respective unlabeled compound, 24-25 hour p.i.
[8] = 1-2 hour p.i., listed as [64Cu]Cu-16
[9] = 1-2 hour p.i., listed as [64Cu]Cu-14
[10] = 4-5 hour p.i., listed as [64Cu]Cu-14

Cc1c(COc2cc(OCc3cncc(S(C)(=O)=O)c3)c(CN[C@@H](CS(=O)(=O)O)C(=O)NCCS(=O)(=O)O)cc2Br)cccc1-c1cccc(OCc2cn(CCCN3CCN(C(=O)[C@H](CS(=O)(=O)O)NC(=O)CCCC(=O)NC45CNCCNCC(N)(CNCCNC4)CNCCNC5)CC3)nn2)c1C.[64Cu+2] [[^64Cu]Cu-16]
reduction of PD-L1 positive tumor uptake under blocking conditions [1]: 10% | reduction of liver uptake under blocking conditions [1]: 74% | contrast of PD-L1 positive tumor SUVmax over mock tumor [1]: 107% | excretion pattern / clearance route in PET [1]: clearance via the renal pathway | SUVmax PC3 PD-L1 tumor, blocking [1, 4]: 1.45 ± 0.06 | SUVmax PC3 PD-L1 tumor, blocking ([1]; tracer +500 nM respective unlabeled compound (injected 5 min prior), 1-2 hour p.i., listed as [64Cu]Cu-16): 1.45 | SUVmax PC3 mock tumor, blocking [1, 5]: 0.90 | SUVmax kidney, blocking [1, 5]: 7.93 | SUVmax liver, blocking [1, 5]: 1.13 ± 0.04 | SUVmax liver, blocking ([1]; tracer +500 nM respective unlabeled compound, 1-2 hour p.i., listed as [64Cu]Cu-16): 1.13 | SUVmax PC3 PD-L1 tumor, blocking [1, 6]: 0.68 | SUVmax PC3 mock tumor, blocking [1, 6]: 0.54 | SUVmax kidney, blocking [1, 6]: 1.28 | SUVmax liver, blocking [1, 6]: 0.84 | SUVmax PC3 PD-L1 tumor, blocking [1, 7]: 1.14 | SUVmax PC3 mock tumor, blocking [1, 7]: 1.01 | SUVmax kidney, blocking [1, 7]: 1.02 | SUVmax liver, blocking [1, 7]: 0.85 | SUVmax PC3 PD-L1 tumor ([1]; 1-2 hour p.i.): 1.61 ± 0.93 | SUVmax PC3 mock tumor ([1]; 1-2 hour p.i.): 0.78 ± 0.36 | SUVmax kidney ([1]; 1-2 hour p.i.): 16.2 ± 15.5 | SUVmax liver ([1]; 1-2 hour p.i.): 4.32 ± 0.02 | SUVmax PC3 PD-L1 tumor [1, 8]: 1.61 | SUVmax PC3 mock tumor [1, 8]: 0.78 | SUVmax kidney [1, 8]: 16.18 | SUVmax liver [1, 8]: 4.32 | SUVmax PC3 PD-L1 tumor ([1]; 4-5 hour p.i.): 0.89 | SUVmax PC3 mock tumor ([1]; 4-5 hour p.i.): 0.37 | SUVmax kidney ([1]; 4-5 hour p.i.): 1.37 | SUVmax liver ([1]; 4-5 hour p.i.): 2.49 | SUVmax PC3 PD-L1 tumor ([1]; 24-25 hour p.i.): 1.47 | SUVmax PC3 mock tumor ([1]; 24-25 hour p.i.): 0.87 | SUVmax kidney ([1]; 24-25 hour p.i.): 0.90 | SUVmax liver ([1]; 24-25 hour p.i.): 1.77 ± 0.08 | SUVmax liver ([1]; 24-25 hour p.i., listed as [64Cu]Cu-16): 1.77 | Log D7.4 [2]: –2.79 ± 0.02 | Kd [3]: 24.2 ± 0.93 nM | ka [3]: (5.55 ± 0.31) × 10^3 (M × s)^–1 | kd [3]: (1.35 ± 0.09) × 10^–4 s^–1

Cc1c(COc2cc(OCc3cncc(S(C)(=O)=O)c3)c(CN[C@@H](CS(=O)(=O)O)C(=O)NCCS(=O)(=O)O)cc2Br)cccc1-c1cccc(OCc2cn(CCCN3CCN(C(=O)[C@H](CS(=O)(=O)O)NC(=O)CC[C@H](C(=O)[O-])N4CCN(CC(=O)[O-])CCN(CC(=O)[O-])CC4)CC3)nn2)c1C.[64Cu+2] [[^64Cu]Cu-14]
reduction of PD-L1 positive tumor uptake under blocking conditions [1]: 13% | reduction of liver uptake under blocking conditions [1]: 63% | contrast of PD-L1 positive tumor SUVmax over mock tumor [1]: 99% | excretion pattern / clearance route in PET [1]: favorable renal clearance | SUVmax PC3 PD-L1 tumor, blocking [1, 4]: 1.48 ± 0.44 | SUVmax PC3 PD-L1 tumor, blocking ([1]; tracer +500 nM respective unlabeled compound (injected 5 min prior), 1-2 hour p.i., listed as [64Cu]Cu-14): 1.48 | SUVmax PC3 mock tumor, blocking [1, 5]: 1.19 | SUVmax kidney, blocking [1, 5]: 32.81 | SUVmax liver, blocking [1, 5]: 1.25 ± 0.13 | SUVmax liver, blocking ([1]; tracer +500 nM respective unlabeled compound, 1-2 hour p.i., listed as [64Cu]Cu-14): 1.25 | SUVmax PC3 PD-L1 tumor, blocking [1, 6]: 0.78 | SUVmax PC3 mock tumor, blocking [1, 6]: 0.48 | SUVmax kidney, blocking [1, 6]: 0.88 | SUVmax liver, blocking [1, 6]: 0.98 | SUVmax PC3 PD-L1 tumor, blocking [1, 7]: 1.53 | SUVmax PC3 mock tumor, blocking [1, 7]: 1.05 | SUVmax kidney, blocking [1, 7]: 0.44 | SUVmax liver, blocking [1, 7]: 0.99 | SUVmax PC3 PD-L1 tumor ([1]; 1-2 hour p.i.): 1.71 ± 0.04 | SUVmax PC3 mock tumor ([1]; 1-2 hour p.i.): 0.86 ± 0.16 | SUVmax kidney ([1]; 1-2 hour p.i.): 22.8 ± 3.0 | SUVmax liver ([1]; 1-2 hour p.i.): 3.41 ± 0.19 | SUVmax PC3 PD-L1 tumor [1, 9]: 1.71 | SUVmax PC3 mock tumor [1, 9]: 0.86 | SUVmax kidney [1, 9]: 22.77 | SUVmax liver [1, 9]: 3.41 | SUVmax PC3 PD-L1 tumor ([1]; 4-5 hour p.i.): 1.26 | SUVmax PC3 mock tumor ([1]; 4-5 hour p.i.): 0.50 | SUVmax kidney ([1]; 4-5 hour p.i.): 0.72 ± 0.24 | SUVmax liver ([1]; 4-5 hour p.i.): 1.54 ± 0.19 | SUVmax kidney [1, 10]: 0.72 | SUVmax liver [1, 10]: 1.54 | SUVmax PC3 PD-L1 tumor ([1]; 24-25 hour p.i.): 1.52 | SUVmax PC3 mock tumor ([1]; 24-25 hour p.i.): 1.49 | SUVmax kidney ([1]; 24-25 hour p.i.): 0.63 | SUVmax liver ([1]; 24-25 hour p.i.): 1.41 | Log D7.4 [2]: –3.00 ± 0.03 | Kd [3]: ~20 nM and 23.3 nM | ka [3]: (5.06 ± 0.25) × 10^3 (M × s)^–1 | kd [3]: (1.17 ± 0.06) × 10^–4 s^–1
